Experimental data taken from the NIST ThermoML archive (doi:10.1021/acs.jced.8b00521).

Assay: xn = mol fraction of the nth substance listed
Conditions: 323.15 K, Liquid; for mass density: Vibrating tube method; for viscosity: Capillary tube (Ostwald / Ubbelohde) method

CCCCCCCC(=O)OCC [ethyl octanoate] + CCCCCCCCCCCC(=O)OC
Conditions	mass density [kg/m3]	viscosity [mPa·s]
2980 kPa, x2 = 0.6001	845	–
3010 kPa, x2 = 0.4999	844	1.31
3020 kPa, x2 = 0.4	844	1.24
3020 kPa, x2 = 0.9	846	1.65
3040 kPa, x2 = 0.8001	846	1.57
6010 kPa, x2 = 0.8001	848	1.61
6020 kPa, x2 = 0.3001	845	1.22
6030 kPa, x2 = 0.4999	846	1.35
6030 kPa, x2 = 0.6999	847	1.5
6040 kPa, x2 = 0.6001	847	1.42
6060 kPa, x2 = 0.1	844	1.08
6060 kPa, x2 = 0.1999	845	1.15
6080 kPa, x2 = 0.4	846	1.29
6080 kPa, x2 = 0.9	849	1.7
8930 kPa, x2 = 0.6999	849	1.56
8980 kPa, x2 = 0.8001	850	1.67
8980 kPa, x2 = 0.9	850	1.75
9030 kPa, x2 = 0.6001	849	1.46
9040 kPa, x2 = 0.1	846	1.11
9070 kPa, x2 = 0.3001	847	1.26
9070 kPa, x2 = 0.4999	848	1.39
9090 kPa, x2 = 0.4	847	1.32
9140 kPa, x2 = 0.1999	847	1.19
11900 kPa, x2 = 0.4	849	1.36
11960 kPa, x2 = 0.6001	850	1.5
11970 kPa, x2 = 0.4999	850	1.43
11990 kPa, x2 = 0.3001	849	1.29
11990 kPa, x2 = 0.8001	852	1.72
12000 kPa, x2 = 0.9	852	1.79
12020 kPa, x2 = 0.1	847	1.14
12020 kPa, x2 = 0.1999	848	1.22
12060 kPa, x2 = 0.6999	851	1.6
14960 kPa, x2 = 0.6001	852	1.55
14960 kPa, x2 = 0.9	854	1.85
14970 kPa, x2 = 0.8001	853	1.76
14980 kPa, x2 = 0.6999	853	1.65
14990 kPa, x2 = 0.1	849	1.18
14990 kPa, x2 = 0.1999	850	1.26
15010 kPa, x2 = 0.4	851	1.4
15020 kPa, x2 = 0.3001	850	1.33
15040 kPa, x2 = 0.4999	851	1.48
